From paper PMC8509676, “Residual Helicity at the Active Site of the Histidine Phosphocarrier, HPr, Modulates Binding Affinity to Its Natural Partners” (International Journal of Molecular Sciences, 2021)

What was measured:
[1] = aqueous solution; cited from earlier work
Text: Streptomyces is an actinomycete, Gram-positive organism with high content of G + C base pairs in its genome. We have carried out an extensive description of the structures and conformational stabilities of HPr^sc (O50515) and EI (EI^sc) (Q9KZP1) to understand their binding in the PTS cascade. We have also characterized the interaction of EI^sc with wild-type HPr^sc and that of the phosphorylated species, as well as that of the N-terminal domain of EI^sc (EIN^sc) with intact HPr^sc. We have also shown that the peptide comprising residues Ala9-Gly3 ...

[2] = Translational diffusion NMR (DOSY); assay type: physicochemical
Description: (b) Translational diffusion NMR (DOSY): Peptide concentrations were the same as those used in the 1D-^1H-NMR spectra. Translational self-diffusion measurements were performed with the pulsed-gradient spin-echo sequence in the presence of 100% D2O. The following relationship existed between the translational self-diffusion coefficient, D, and the delays used during experiment acquisition:(2) I/I0=−exp(DγH2δ^2G^2(Δ−δ/3−τ/2)) where I is the peak intensity of a particular resonance (or a group of them) at any gradient strength; I0 is the maximum peak intensity of the same resonance(s) at the smallest gradient strength (that is, at 2% of the total power of the gradient coil); D is the translational self-diffusion constant (in cm^2 s^−1); δ is the duration (in s) of the gradient; G is the gradient strength (in T cm^−1); ∆ is the time (in s) between the gradients; γH is the gyromagnetic constant of the proton (in rad s^−1 T^−1); and τ is the recovery delay between the bipolar gradients (100 µs in our experiments). The gradient strength (G) was varied in 16 lineal steps, between 2 and 95% of the total power of the gradient coil of the probe. The gradient strength was calibrated by using the value of D for the residual proton water line in a sample containing 100% D2O placed in a 5 mm tube [42]. Data were plotted as I/I0 versus G^2, and the exponential factor of the curve was:(3) DγH2δ^2(Δ−δ/3−τ/2) from which D can be obtained. The duration of the gradient (δ) was 2.25 ms, and the time between the two gradients (∆) was set to 200 ms. The signal from the methyl groups between 1.1 and 0.70 ppm were used for integration of the intensity. A final concentration of 1% of dioxane was added to each peptide; the hydrodynamic radius, Rh, of each peptide was obtained for comparison by assuming that the Rh of dioxane was 2.12 Å [42]. The DOSY experiment was repeated twice with fresh samples for each peptide.

[3] = molecular target: EIN^sc (Streptomyces coelicolor, UniProt Q9KZP1); test: biochemical; assay type: binding
Chain of EIN^sc (Q9KZP1 1-230): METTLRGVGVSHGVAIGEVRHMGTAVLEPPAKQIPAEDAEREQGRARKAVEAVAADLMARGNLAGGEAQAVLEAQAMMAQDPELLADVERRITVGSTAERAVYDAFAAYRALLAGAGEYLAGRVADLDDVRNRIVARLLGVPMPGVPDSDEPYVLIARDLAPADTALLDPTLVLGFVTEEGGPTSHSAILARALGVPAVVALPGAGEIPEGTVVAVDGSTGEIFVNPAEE
Description: Spectra were collected at 25 °C on a Cary spectrofluorometer (Agilent, Madrid, Spain), with a Peltier temperature controller. The samples were prepared the day before and left overnight at 5 °C. Before measurements, the samples were incubated for 1 h at 25 °C. A quartz cell with a 1 cm path length (Hellma, Kruibeke, Belgium) was used. In all the experiments, the slit widths were equal to 5 nm for both the excitation and emission lights. Protein samples were excited at either 280 or 295 nm. The experiments were performed between 300 and 400 nm. The signal was acquired for 1 s, and the increment of wavelength was set to 1 nm. Appropriate blank corrections were made in all spectra. For the binding experiments, 3 µM of either protein (Rsd^ec or EIN^sc) and 15 µM of the corresponding peptide were mixed. The experiments in aqueous solution were acquired in Tris buffer (50 mM, pH 7.0).
For the titration between either of the two proteins (Rsd^ec or EIN^sc) and the corresponding peptide, increasing amounts of the latter, in a concentration range of 0 to 30 µM, were added to a solution with a fixed concentration of each protein (3 µM). The experimental set-up was identical to that described above, including preparation of the samples the day before and their storage overnight at 5 °C. Before measurements, the samples were incubated for 1 h at 25 °C. The fluorescence of a blank solution containing only the corresponding peptide was subtracted for each data point. […] The Kd was determined by following the fluorescence at selected wavelengths and fitting experimental data to Equation (1). […] At all used concentrations, the fluorescence was corrected by the inner-filter effects.

[4] = molecular target: EIN^sc (N-terminal domain of EI^sc) (Streptomyces coelicolor, UniProt Q9KZP1); test: biochemical; assay type: binding
Chain of EIN^sc (N-terminal domain of EI^sc) (Q9KZP1 1-230): as above
Description: The experimental set-up and data processing of ITC experiments has been described previously. Rsd^ec or EIN^sc (at 10–20 µM) were injected into the cell, and the peptides in the syringe (100–200 µM) in 50 mM of Tris buffer, pH 7.0. The temperature for all the experiments was 25 °C. Typically, each calorimetric titration consisted of performing 19 injections with 2 μL volume, with a time spacing of 150 s, while stirring at 750 rpm in an Auto-iTC200 high-sensitivity microcalorimeter (MicroCal, Malvern-Panalytical, Malvern, UK). The results were analysed by applying a model that considered a single binding site (assuming a 1:1 stoichiometry) for the peptide/EIN^sc or peptide/Rsd^ec interaction using a nonlinear least-squares regression analysis in Origin 7.0 (OriginLab, Northampton, MA, USA) with user-defined fitting routines.

For “Ac-GWAEGLHARPASIFVRAATATG-NH2 [Wild-type]”, the helical population [1] is given as “about 7%”, the “D (translational diffusion coefficient)” value ([2]; DOSY, 10 °C, 100% D2O, 70-120 µM peptide, fitting errors, repeated twice) is given as 1.95 ± 0.03 cm^2 s^−1 × 10^6 and the “Rh (in parentheses, from DOSY)” value ([2]; from comparison with the Rh of dioxane (2.12 Å)) is given as 11 ± 1 Å. For the same substance, the Kd [3] was 10 µM, the Kd [4] was 2.3 ± 0.4 µM and the “ΔH, EIN^sc” value ([4]; ITC, 25 °C, 50 mM Tris pH 7.0) was -0.8 ± 0.4 kcal/mol.
